Values joined by “and” are separate entries in the source; they are usually repeats but may differ in a detail not shown here. Equal values may be shown once.
Legend:
hTRPV1 [1] = biological target: T1, hTRPV1 (Homo sapiens (Human), UniProt Q8NER1); assay: Ca2+ uptake assay, capsaicin antagonism (CHO-hTRPV1 cells); assay type: cell-based; details: for % inhibition at 30 μM (capsaicin antagonism) / inhibition at 30 µM: compound at 30 μM, capsaicin 30 nM; for Ki: capsaicin (30 nM) stimulated Ca2+ uptake
T1 sequence (Q8NER1 whole entry): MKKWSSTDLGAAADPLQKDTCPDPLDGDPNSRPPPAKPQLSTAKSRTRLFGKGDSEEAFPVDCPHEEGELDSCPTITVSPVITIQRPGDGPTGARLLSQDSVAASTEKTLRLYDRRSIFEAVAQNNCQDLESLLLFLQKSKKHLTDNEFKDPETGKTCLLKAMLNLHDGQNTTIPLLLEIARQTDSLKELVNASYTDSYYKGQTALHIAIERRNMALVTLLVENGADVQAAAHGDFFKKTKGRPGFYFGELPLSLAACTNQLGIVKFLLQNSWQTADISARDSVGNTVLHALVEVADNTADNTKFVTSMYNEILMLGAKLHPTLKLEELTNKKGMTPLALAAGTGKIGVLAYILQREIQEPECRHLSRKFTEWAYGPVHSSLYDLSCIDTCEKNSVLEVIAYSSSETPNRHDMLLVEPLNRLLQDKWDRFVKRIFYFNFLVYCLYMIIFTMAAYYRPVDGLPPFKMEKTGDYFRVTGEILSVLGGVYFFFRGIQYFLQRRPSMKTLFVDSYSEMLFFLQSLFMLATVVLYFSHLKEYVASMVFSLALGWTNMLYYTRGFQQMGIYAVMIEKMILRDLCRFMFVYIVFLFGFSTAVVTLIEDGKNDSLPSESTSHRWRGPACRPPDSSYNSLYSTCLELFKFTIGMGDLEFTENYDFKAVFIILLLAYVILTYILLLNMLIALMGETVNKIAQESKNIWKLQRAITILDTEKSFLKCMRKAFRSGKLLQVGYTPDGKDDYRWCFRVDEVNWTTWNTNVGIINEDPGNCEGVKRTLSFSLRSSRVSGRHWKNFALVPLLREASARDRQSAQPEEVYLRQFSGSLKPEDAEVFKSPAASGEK
Experimental: (§1) Tet-On induced CHO-hTRPV1 cells were cultured in maintaining medium (F12 supplemented with 10% TET-free FBS [Atlanta Biologicals, GA], 25 mM HEPES, 10 μg/ml blasticidin and 250 μg/ml geneticin (all from Invitrogen Life Sciences; Grand Island, N.Y.). TRPV1 protein was induced with induction medium (F12 supplemented with 10% FBS, 25 mM HEPES, and 1 μg/ml tetracycline) as described below for ligand binding and Ca uptake measurements.
(§2) CHO-hTRPV1 cells were plated in 24-well plates, reaching 40 to 60% confluence in maintaining medium after 24 hours. The cells were washed once with Dulbecco's phosphate buffered saline (DPBS; Invitrogen, Grand Island, N.Y.) to remove antibiotics, and fresh medium with tetracycline (inducing medium) was added to induce TRPV1 expression. Experiments were done approximately 24 hours after induction. The cells were at least 90% confluent at the time of the assays.
(§3) For agonist Ca^2+ uptake assays, the inducing medium was aspirated and replaced by DMEM (supplemented with bovine serum albumin (0.25 mg/mL), […], and 100 μl of increasing concentrations of the non-radioactive ligand for a total volume of 400 μl/well. The cells were incubated for 5 min in a water bath at 37° C. For uptake measurements by a full agonist, a saturating concentration of capsaicin (3000 nM) was used as a positive control. Immediately after incubation, the assay medium was aspirated and the cells were washed twice with ice cold DPBS (no Ca^2+ & Mg^2+).The cells were then lysed in radioimmunoprecipitation assay buffer (50 mM Tris-Cl pH 7.5, 150 mM NaCl, 1% Triton X-100, 1% SDS, and 1% sodium deoxycholate; 400 μL/well) for at least 40 min on a shaker. Aliquots (300 μL) of the cell lysates were counted in a liquid scintillation counter. Background uptake was determined in the absence of either compound or capsaicin. For the antagonism assays, capsaicin (30 nM) was included along with increasing concentrations of the ligand being evaluated. The cells were incubated for 5 min in a water bath at 37° C. Immediately after incubation, the assay medium was aspirated and the cells were washed twice with ice-cold DPBS (no Ca^2+ & Mg^2+). The cells were then lysed in radioimmunoprecipitation assay buffer for at least 40 min on a shaker. Aliquots of the cell lysate were counted in a liquid scintillation counter. Triplicate points at each concentration of ligand were determined in each experiment. Compounds were initially screened at a concentration of 30 µM. Compounds showing greater than 10% agonism/antagonism were evaluated in triplicate experiments. As indicated, full dose response curves for compounds showing activity were performed at least three times. Data was analyzed using GraphPad Prism.

hTRPV1 [2] = biological target: T1, hTRPV1; assay: [3H]RTX competition binding assay (membranes of induced CHO-hTRPV1 cells); details: approximately 2 nM [3H]RTX, 37° C., 60 minutes; read-out: Ki for inhibition of [3H]RTX binding to hTRPV1
Experimental: as §1
Binding studies with [^3H]RTX were carried out as follows. The binding assay mixtures were prepared in 1.5 ml centrifuge tubes and consisted of a fixed concentration (approximately 2 nM) of [^3H]RTX (37 Ci/mmol specific activity, PerkinElmer Life Sciences), various concentrations of competing ligands, and […] of membranes from induced CHO-hTRPV1 expressing cells (approximately 1-3×10^6 cells) in Dulbecco's phosphate buffered saline (DPBS, with Ca^2+ & Mg^2+) for a total volume of 350 μl. The assay mix contained bovine serum albumin at a final concentration of 0.25 mg/ml (Cohn fraction V; Sigma-Aldrich, St. Louis, Mo.). In each set of experiments, nonspecific binding were determined in the presence of 200 nM non-radioactive RTX. The binding reaction was initiated by placing the assay mixture in a 37° C. shaking water bath for 60 minutes ([…]). The assay mixture was then chilled on ice for 2-3 min before adding 100 μl of α1-acid glycoprotein (2 mg/ml; Sigma-Aldrich) and mixed thoroughly. The tubes were kept on ice for an additional 10 min. The bound and free ligands were then separated by centrifugation (12,200 rpm for 15 minutes) in a Beckman Coulter centrifuge Allegra 21R. 200 μl of supernatant was collected for determination of free ligand. The remainder was removed by aspiration. The bottom portion of the tubes containing the membranes was cut off and bound radioactivity determined. Radioactivity was measured by scintillation counting. Data were analyzed using GraphPad Prism. Ki values for compounds were determined by competition for binding of [^3H]RTX to the hTRPV1 and represent the mean SEM of triplicate binding curves. […]

hTRPV1 [3] = biological target: T1, hTRPV1; assay: Agonist Ca2+ uptake assay (CHO-hTRPV1 cells); assay type: cell-based
Experimental: as §1, §2
as §3, with “The cells were incubated for 5 min in a water bath at 37° C. Immediately after incubation, the assay medium was aspirated and the cells were washed twice with ice-cold DPBS (no Ca^2+ & Mg^2+). The cells were then lysed in radioimmunoprecipitation assay buffer for at least 40 min on a shaker.” left out, “Triplicate points at each concentration of ligand were determined in each experiment. Compounds were initially screened at a concentration of 30 µM. Compounds showing greater than 10% agonism/antagonism were evaluated in triplicate experiments. As indicated, full dose response curves for compounds showing activity were performed at least three times.” left out

[4] = biological target: cannabinoid receptor 2 (CB2) (Homo sapiens (Human), UniProt P34972); assay: Binding at the cannabinoid receptor 2 (CB2)
cannabinoid receptor 2 (CB2), sequence (P34972 whole entry, species assumed): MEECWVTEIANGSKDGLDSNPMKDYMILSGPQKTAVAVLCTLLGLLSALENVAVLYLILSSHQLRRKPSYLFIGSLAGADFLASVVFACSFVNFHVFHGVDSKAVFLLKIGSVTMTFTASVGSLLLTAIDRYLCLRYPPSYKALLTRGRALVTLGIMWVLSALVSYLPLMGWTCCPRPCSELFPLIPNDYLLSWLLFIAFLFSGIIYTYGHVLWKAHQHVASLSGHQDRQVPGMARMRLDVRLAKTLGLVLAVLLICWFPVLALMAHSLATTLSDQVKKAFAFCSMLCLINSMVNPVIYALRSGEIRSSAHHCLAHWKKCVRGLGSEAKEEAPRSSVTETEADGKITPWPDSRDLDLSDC

inhibition at 30 µM (hTRPV1 [1]) [%] | Ki (hTRPV1 [1]) | Compound | other results
 | 0.47 ± 0.18 µM | O=C(Nc1ccc(F)c([N+](=O)[O-])c1)Nc1cccc2c(O)cccc12 [Compound 14] | % inhibition at 30 μM (capsaicin antagonism) (hTRPV1 [1]): 100 ± 0%; Ki [4]: 15.9 µM; Ki (hTRPV1 [2]): 0.65 ± 0.26 µM
99.6 | 0.49 ± 0.14 µM | Cc1c(Cl)cccc1NC(=O)Nc1cccc2c(O)cccc12 [Compound 15] | Ki [4]: 1.39 µM
100 | 0.56 ± 0.16 µM | Cc1c(Cl)cccc1NC(=O)Nc1cccc(O)c1 [Compound 16] | Ki [4]: 12.2 µM
 | 2.15 ± 0.72 µM | O=C1C(=O)c2cc(Br)cc([N+](=O)[O-])c2-c2ccc(Br)cc21 [Compound 17] | % inhibition at 30 μM (capsaicin antagonism) (hTRPV1 [1]): 66 ± 11%
51.8 | 7 ± 2 µM | O=C(Nc1cc(C(F)(F)F)ccc1Cl)c1ccccc1F [Compound 18] | 
12.7 ± 1 |  | CCN(CC)c1ccc(CNS(=O)(=O)c2ccc(NC(C)=O)cc2)cc1 [XIE1-203Y, N-(4-(N-(4-(diethylamino)benzyl)sulfamoyl)phenyl)acetamide] | 

Further lines, the compound ahead of its results:

Compound | inhibition at 30 µM (hTRPV1 [1]) [%] | Ki (hTRPV1 [1]) | other results
O=C(Nc1cccc(C(F)(F)F)c1)Nc1ccc([N+](=O)[O-])cc1Cl [Compound 1] | 98.2 ± 2.7 |  | % inhibition at 30 μM (capsaicin antagonism) (hTRPV1 [1]): 92.2 ± 2.7%; Ki (hTRPV1 [2]): 1.11 ± 0.21 µM
Cc1cc([N+](=O)[O-])ccc1NC(=O)Nc1cccc(F)c1 [Compound 2] | 79.9 ± 4.9 | 4.5 µM and 4.52 µM | Ki (hTRPV1 [1]; listed as compound 2): 4.5 ± 0.88 µM; Ki (hTRPV1 [2]): 5.2 ± 0.32 µM
NC(=O)c1ccccc1NC(=O)Nc1ccc(F)cc1 [Compound 3] | 32 ± 8 |  | 
CCOC(=O)c1ccc(NC(=O)Nc2cccc(Cl)c2)cc1 [Compound 4] | 64.5 | 11.7 ± 1.3 µM | 
CCOC(=O)c1ccc(NC(=O)Nc2ccc(F)cc2)cc1 [Compound 5] |  |  | functional character at hTRPV1 (hTRPV1 [3]): partial agonist; EC50 (hTRPV1 [3]; Ca2+ uptake, CHO-hTRPV1 cells, read-out: EC50 for capsaicin agonism): 2.84 ± 0.21 µM; Emax (hTRPV1 [3]; relative to 3000 nM capsaicin, read-out: maximal stimulation, % of that by 3000 nM capsaicin (% agonism)): 55.7 ± 7.8%
CCOC(=O)c1ccc(NC(=O)Nc2cc(Cl)ccc2C)cc1 [Compound 6] | 34 ± 7 |  | 
COc1ccc(Cl)cc1NC(=O)Nc1ccc(CCO)cc1 [Compound 7] | 33 ± 7 |  | 
COc1ccc(C)cc1NC(=O)Nc1ccccc1F [Compound 8] | 28 ± 6 |  | 
Cc1cc(O)c(C(C)C)cc1NC(=O)Nc1ccc(Br)cc1 [Compound 9] | 27 ± 14 |  | 
CSc1ccc(NC(=O)Nc2ccc(Cl)cc2[N+](=O)[O-])cc1 [Compound 11] |  | 3.7 ± 1.7 µM | % inhibition at 30 μM (capsaicin antagonism) (hTRPV1 [1]): 61 ± 18%
Cc1ccc(Cl)cc1NC(=O)Nc1cccc2c(O)cccc12 [Compound 13] | 72 | 3.7 ± 1 µM | 
